Test results from patent publication US20230157998A1, “Methods of Inhibiting SARS-CoV-2 Replication and Treating Corona Virus Disease 2019” (Pfizer Inc., priority 2020, published 2023).

Key:
SARS-CoV-2 3CL protease = SARS-CoV-2 3CL protease (Severe acute respiratory syndrome coronavirus 2, UniProt P0DTD1); assay: biochemical; settings: for IC50: 15 nM enzyme, 60 min at 23° C.; for Ki: fit to the Morrison equation
SARS-CoV-2 = assay: Antiviral activity in HeLa-ACE2 cells (viral protein detection); type: cell-based; settings: Severe acute respiratory syndrome coronavirus 2, compound alone

SMILES	IC50 (SARS-CoV-2 3CL protease) [µM]	Ki (SARS-CoV-2 3CL protease) [µM]	EC90 (SARS-CoV-2) [µM]
CC(C)(C)C[C@H](NC(=O)[C@H]1CCCO1)C(=O)N[C@@H](C[C@@H]1CCNC1=O)C(=O)COC(=O)c1c(Cl)cccc1Cl [(3S)-3-({4-methyl-N-[(2R)-tetrahydrofuran-2-ylcarbonyl]-L-leucyl}amino)-2-oxo-4-[(3S)-2-oxopyrrolidin-3-yl]butyl 2,6-dichlorobenzoate]	0.017	0.00271	
COc1cccc2[nH]c(C(=O)N[C@@H](CC(C)C)C(=O)N[C@@H](C[C@@H]3CCNC3=O)C(=O)COC(=O)C3CC3)cc12 [(3S)-3-({N-[(4-methoxy-1H-indol-2-yl)carbonyl]-L-leucyl}amino)-2-oxo-4-[(3S)-2-oxopyrrolidin-3-yl]butyl cyclopropanecarboxylate]	0.128	0.0427	
O=C(N[C@@H](CC1CC1)C(=O)N[C@@H](C[C@@H]1CCNC1=O)C(=O)c1nc2ccccc2s1)c1ccccn1 [H, N-((S)-1-(((S)-1-(benzo[d]thiazol-2-yl)-1-oxo-3-((S)-2-oxopyrrolidin-3-yl)propan-2-yl)amino)-3-cyclopropyl-1-oxopropan-2-yl)picolinamide]	8.4	3.05	
COc1cccc2[nH]c(C(=O)N[C@@H](Cc3ccccc3)C(=O)N[C@@H](C[C@@H]3CCNC3=O)C(=O)CO)cc12 [I, N-((S)-1-(((S)-4-hydroxy-3-oxo-1-((S)-2-oxopyrrolidin-3-yl)butan-2-yl)amino)-1-oxo-3-phenylpropan-2-yl)-4-methoxy-1H-indole-2-carboxamide]	0.375	0.139	
CC(C)(C)C[C@H](NC(=O)c1cc2ccccc2[nH]1)C(=O)N[C@@H](C[C@@H]1CCNC1=O)C(=O)CO [N-((1S)-1-{[((1S)-3-hydroxy-2-oxo-1-{[(3S)-2-oxopyrrolidin-3-yl]methyl}propyl)amino]carbonyl}-3,3-dimethylbutyl)-1H-indole-2-carboxamide]	0.024	0.00281	
CCC(CC)COC(=O)[C@H](C)N[P@](=O)(OC[C@H]1O[C@@](C#N)(c2ccc3c(N)ncnn23)[C@H](O)[C@@H]1O)Oc1ccccc1 [remdesivir, reference compound]			0.168
